Several values for one entry are separate records, joined by “and”; a condition that tells them apart may be missing. Identical values can stand only once.
Assay: xn = mol fraction of the nth substance listed

CCC[NH3+].O=[N+]([O-])[O-] + O
298 K, 101 kPa
Conditions	viscosity [mPa·s]
x2 = 0.1	50.56
x2 = 0.198	34.71
x2 = 0.294	24.59
x2 = 0.397	16.65
x2 = 0.494	11.43
x2 = 0.596	7.63
x2 = 0.696	5.02
x2 = 0.797	3.19
x2 = 0.9	1.86
x2 = 0.95	1.35

Cc1ncc(CO)c(CO)c1O.Cl + O
101 kPa
Conditions	viscosity
293.15 K, x1 = 0.001798	1.047 mPa·s
293.15 K, x1 = 0.0018	1.047 mPa·s
298.15 K, x1 = 0.00081	0.9087 mPa·s
298.15 K, x1 = 0.000909	0.918 mPa·s
298.15 K, x1 = 0.001809	0.95 mPa·s
298.15 K, x1 = 0.002028	0.9328 mPa·s
298.15 K, x1 = 0.002489	0.9415 mPa·s
298.15 K, x1 = 0.002657	0.96 mPa·s
298.15 K, x1 = 0.003638	0.99 mPa·s
298.15 K, x1 = 0.003926	0.9708 mPa·s
298.15 K, x1 = 0.004487	1.007 mPa·s
298.15 K, x1 = 0.004756	0.9841 mPa·s
298.15 K, x1 = 0.005406	1.027 mPa·s
298.15 K, x1 = 0.006266	1.04 mPa·s
298.15 K, x1 = 0.006666	1.03 mPa·s
298.15 K, x1 = 0.007307	1.06 mPa·s
298.15 K, x1 = 0.00813	1.073 mPa·s
298.15 K, x1 = 0.008945	1.084 mPa·s
298.15 K, x1 = 0.009813	1.108 mPa·s
303.15 K, x1 = 0.0018	0.832 mPa·s
303.15 K, x1 = 0.00359	0.8603 mPa·s and 0.8604 mPa·s
308.15 K, x1 = 0.002028	0.7519 mPa·s
308.15 K, x1 = 0.002489	0.7601 mPa·s
308.15 K, x1 = 0.003926	0.7829 mPa·s
308.15 K, x1 = 0.004756	0.7924 mPa·s
308.15 K, x1 = 0.006666	0.828 mPa·s
313.15 K, x1 = 0.001798	0.6798 mPa·s and 0.6802 mPa·s and 0.68 mPa·s
313.15 K, x1 = 0.00359	0.7025 mPa·s
313.15 K, x1 = 0.007154	0.7543 mPa·s and 0.7545 mPa·s
318.15 K, x1 = 0.002028	0.6236 mPa·s
318.15 K, x1 = 0.002489	0.6303 mPa·s
318.15 K, x1 = 0.003926	0.649 mPa·s
318.15 K, x1 = 0.004756	0.6605 mPa·s
318.15 K, x1 = 0.006666	0.6863 mPa·s
323.15 K, x1 = 0.001798	0.5675 mPa·s
323.15 K, x1 = 0.0018	0.5673 mPa·s
323.15 K, x1 = 0.005375	0.6071 mPa·s and 0.6075 mPa·s and 0.6074 mPa·s

NC(CO)(CO)CO + O
Conditions	viscosity [mPa·s]
298.15 K, 101 kPa, x1 = 0.001	0.91
298.15 K, 101 kPa, x1 = 0.01	1.03
298.15 K, 101 kPa, x1 = 0.022	1.18
298.15 K, 101 kPa, x1 = 0.034	1.46
298.15 K, 101 kPa, x1 = 0.055	1.97
303 K, 101 kPa, x1 = 0.06	2.19
303.15 K, 101 kPa, x1 = 0.001	0.79
303.15 K, 101 kPa, x1 = 0.01	0.91
303.15 K, 101 kPa, x1 = 0.022	1.05
303.15 K, 101 kPa, x1 = 0.034	1.28
303.15 K, 101 kPa, x1 = 0.055	1.77
303.15 K, 101.33 kPa, x1 = 0.008	0.905
303.15 K, 101.33 kPa, x1 = 0.02	1.042
303.15 K, 101.33 kPa, x1 = 0.04	1.475
303.15 K, 101.33 kPa, x1 = 0.047	1.789
308.15 K, 101 kPa, x1 = 0.001	0.69
308.15 K, 101 kPa, x1 = 0.01	0.79
308.15 K, 101 kPa, x1 = 0.022	0.94
308.15 K, 101 kPa, x1 = 0.034	1.14
308.15 K, 101 kPa, x1 = 0.055	1.54
313 K, 101 kPa, x1 = 0.06	1.68
313.15 K, 101 kPa, x1 = 0.001	0.62
313.15 K, 101 kPa, x1 = 0.01	0.71
313.15 K, 101 kPa, x1 = 0.022	0.85
313.15 K, 101 kPa, x1 = 0.034	1.03
313.15 K, 101 kPa, x1 = 0.055	1.37
313.15 K, 101.33 kPa, x1 = 0.008	0.738
313.15 K, 101.33 kPa, x1 = 0.02	0.846
313.15 K, 101.33 kPa, x1 = 0.026	0.981
313.15 K, 101.33 kPa, x1 = 0.047	1.399
318.15 K, 101 kPa, x1 = 0.001	0.58
318.15 K, 101 kPa, x1 = 0.01	0.65
318.15 K, 101 kPa, x1 = 0.022	0.77
318.15 K, 101 kPa, x1 = 0.034	0.93
318.15 K, 101 kPa, x1 = 0.055	1.22
323 K, 101 kPa, x1 = 0.06	1.32
323.15 K, 101 kPa, x1 = 0.001	0.52
323.15 K, 101 kPa, x1 = 0.022	0.71
323.15 K, 101 kPa, x1 = 0.034	0.84
323.15 K, 101 kPa, x1 = 0.055	1.11
323.15 K, 101.33 kPa, x1 = 0.008	0.616
323.15 K, 101.33 kPa, x1 = 0.02	0.705
323.15 K, 101.33 kPa, x1 = 0.026	0.811
323.15 K, 101.33 kPa, x1 = 0.04	0.962
323.15 K, 101.33 kPa, x1 = 0.047	1.129

O=P(O)(O)OP(=O)(O)O + O
viscosity, 101 kPa
Conditions	313 K	323 K
x1 = 0.009	0.95 mPa·s and 0.8 mPa·s	–
x1 = 0.015	1.49 mPa·s and 1.2 mPa·s	–
x1 = 0.02	1.75 mPa·s	1.39 mPa·s
x1 = 0.026	2.86 mPa·s	2.38 mPa·s
x1 = 0.03	4.79 mPa·s and 3.85 mPa·s	–
x1 = 0.0306	3.76 mPa·s	2.03 mPa·s
x1 = 0.04	5.82 mPa·s and 4.7 mPa·s	–
x1 = 0.045	7.65 mPa·s	6.05 mPa·s
x1 = 0.051	9.8 mPa·s and 6.88 mPa·s	–
x1 = 0.055	10.9 mPa·s and 8.82 mPa·s	–
x1 = 0.062	15.6 mPa·s	12.16 mPa·s

O=S(=O)(O)CCCN1CCOCC1 + O
viscosity [mPa·s], 101.3 kPa
Conditions	x1 = 0.003708	x1 = 0.007256	x1 = 0.009684	x1 = 0.01083	x1 = 0.01439	x1 = 0.0179
298.15 K	0.947	1.027	1.07	1.098	1.189	1.276
308.15 K	0.765	0.826	0.863	0.886	0.963	1.03
318.15 K	0.634	0.684	0.711	0.733	0.797	0.851

OCCC1CCCCN1 (stereo unspecified) + O
viscosity [mPa·s], 101.3 kPa
Conditions	x1 = 0.0153	x1 = 0.0564	x1 = 0.102	x1 = 0.173	x1 = 0.295
298.15 K	1.426	3.959	9.631	24.9	89.03
313.15 K	1.025	2.371	5.15	11.33	35.53

OC[C@H]1O[C@H](O[C@H]2O[C@H](CO)[C@@H](O)[C@H](O)[C@H]2O)[C@H](O)[C@@H](O)[C@@H]1O + O
298.15 K, 101 kPa
Conditions	viscosity [mPa·s]
x1 = 0.0009	0.935
x1 = 0.001798	0.982
x1 = 0.002695	1.032
x1 = 0.00359	1.084
x1 = 0.004484	1.139
x1 = 0.005375	1.197

O[C@H]1[C@H](O)[C@@H](O)[C@H](O)[C@@H](O)[C@H]1O + O
viscosity
Conditions	x1 = 0.0018	x1 = 0.002	x1 = 0.00359	x1 = 0.004	x1 = 0.005	x1 = 0.00538	x1 = 0.00715	x1 = 0.00893
293.15 K, 101 kPa	1.051 mPa·s	–	1.102 mPa·s	–	–	1.154 mPa·s	1.23 mPa·s	1.281 mPa·s
293.15 K, 101.3 kPa	–	1.035 mPa·s	–	1.086 mPa·s	1.138 mPa·s	–	–	–
298.15 K, 101.3 kPa	–	0.945 mPa·s	–	0.986 mPa·s	1.006 mPa·s	–	–	–
303.15 K, 101 kPa	0.836 mPa·s	–	0.875 mPa·s	–	–	0.911 mPa·s	0.97 mPa·s	1.001 mPa·s and 1.011 mPa·s
303.15 K, 101.3 kPa	–	0.821 mPa·s	–	0.861 mPa·s	0.899 mPa·s	–	–	–
313.15 K, 101 kPa	0.685 mPa·s	–	0.728 mPa·s	–	–	0.742 mPa·s	0.789 mPa·s	0.82 mPa·s
323.15 K, 101 kPa	0.577 mPa·s	–	0.601 mPa·s	–	–	0.618 mPa·s	0.658 mPa·s	0.684 mPa·s
